Legend:
P. caudatum [1] = test: Protozoicidal effect, time for 100% kill; format: cell-based, Paramecium caudatum; conditions: for Time of death (100% kill): observation time 24 hours
Procedure: (§1) […] protozoa had stopped moving. The observation time was 24 hours. In order to determine whether the protozoa had been killed rather than only temporarily inactivated, the organisms in hop solution were centrifuged, the supernatant removed, and the protozoa placed into fresh medium in which hop was not present. When there was no revival of the organisms, it was concluded that they were dead rather than only temporarily inactivated.

Chaos sp. [2] = test: Protozoicidal effect, time for 100% kill; format: cell-based; conditions: for Time of death (100% kill): observation time 24 hours
Procedure: (§2) The protozoicidal effect of various hop compounds was determined by preparing different concentrations of hop solution in 10 ml. of medium. The solution was poured into 6×4 multiwell dishes—3424 Mark 2 (Coster, Cambridge, Mass.). An average of 10 microorganisms was added to each well and observed under the stereomicroscope. Results were expressed as the time in minutes for a 100% kill, which was presumed when all of the
(§3) protozoa had stopped moving. The observation time was 24 hours.
(§4) In order to determine whether the protozoa had been killed rather than only temporarily inactivated, the organisms in hop solution were centrifuged, the supernatant removed, and the protozoa placed into fresh medium in which hop was not present. When there was no revival of the organisms, it was concluded that they were dead rather than only temporarily inactivated.
(§5) Tests were conducted to determine the effectiveness of the alpha and beta resins against amoebae.

Euglena sp. = test: Protozoicidal effect, time for 100% kill; format: cell-based; conditions: observation time 24 hours
Procedure: as §1

T. pyriformis = test: Protozoicidal effect, time for 100% kill; format: cell-based, Tetrahymena pyriformis; conditions: observation time 24 hours
Procedure: as §1

P. papillata = test: Protozoicidal effect, time for 100% kill; format: cell-based, Polytomella papillata; conditions: observation time 24 hours
Procedure: as §1

Amoeba proteus = test: Protozoicidal effect, time for 100% kill; format: cell-based; conditions: 500 μg/ml, observation time 24 hours
Procedure: as §2, §3, §4, §5

P. caudatum [3] = test: Co-action of hop resins with carbon dioxide, time for 100% kill; format: cell-based, Paramecium caudatum; conditions: carbon dioxide bubbled into the medium for 30 seconds before inoculation
Procedure: (§6) Different concentrations of the alpha and beta resins of hop were prepared in 10 ml. of medium, as identified in Table 1, and poured into plastic tissue culture flasks of 25 cm. growth area with screw caps, obtained from Falcon, Oxnard, Calif. Carbon dioxide was then bubbled through the medium in the bottles at a rapid rate for a period of 30 seconds. An average of ten organisms were added to each flask and examined directly under the stereomicroscope. The times that were taken for a 100% kill of the organisms, that is, when all of the organisms ceased any motion, were recorded in minutes and are tabulated in Tables 7 and 8.

Chaos sp. [4] = test: Co-action of hop resins with carbon dioxide; format: cell-based
Procedure: as §6
The same tests but at greater resin concentrations were carried out on an amoeba strain, Chaos sp., and the results recorded in Table 8.

[5] = 0.2 μg/ml, listed as beta resin
[6] = 0.5 μg/ml, listed as beta resin

SMILES: COc1cc(O)c(CC=C(C)C)c(O)c1C(=O)/C=C/c1ccc(O)cc1 [Xanthohumol, xanthohumol]
- Time of death (100% kill) (P. caudatum [1]; 0.05 μg/ml): 10 min
- Time of death (100% kill) (P. caudatum [1]; 0.05 μg/ml, listed as xanthohumol): ten
- Time of death (100% kill) (P. caudatum [1]; 0.1 μg/ml): 5 min
- Time of death (100% kill) (P. caudatum [1]; 1.0 μg/ml): 2.5 min
- Concentration effective in killing (Chaos sp. [2]): ≥ 5 µg/mL
- Time of death (100% kill) (Chaos sp. [2]; 5.0 μg/ml): 15 min
- Time of death (100% kill) (Chaos sp. [2]; 10 μg/ml): 11 min

SMILES: CC(C)=CCC1=C(O)C(C(=O)CC(C)C)=C(O)C(CC=C(C)C)(CC=C(C)C)C1=O [Beta Resin, lupulone]
- Time of death (100% kill) (P. caudatum [1]; 0.05 μg/ml): not sensitive
- Time for death to occur (P. caudatum [1]; 0.1 ug/ml): one
- Time of death (100% kill) (P. caudatum [1]; 0.1 μg/ml): 60 min
- Time of death (100% kill) (P. caudatum [1]; 0.2 μg/ml): 5 min
- Time of death (100% kill) (P. caudatum [1]; [5]): ≤ 5 min
- Time of death (100% kill) (P. caudatum [1]; 0.5 μg/ml): 3.5 min
- Time of death (100% kill) (P. caudatum [1]; [6]): five
- Time of death (100% kill) (P. caudatum [1]; 1.0 μg/ml): 3.0 min
- Time of death (100% kill) (P. caudatum [1]; 2.0 μg/ml): 2.0 min
- Time of death (100% kill) (Euglena sp.; 0.05 μg/ml): not sensitive
- Time of death (100% kill) (Euglena sp.; 0.5 μg/ml): 2.5 min
- Time of death (100% kill) (Euglena sp.; 1.0 μg/ml): 1.5 min
- Time of death (100% kill) (Euglena sp.; 2.0 μg/ml): 1.2 min
- Time of death (100% kill) (T. pyriformis; 0.05 μg/ml): not sensitive
- Time of death (100% kill) (T. pyriformis; 0.2 μg/ml): 15 min
- Time of death (100% kill) (T. pyriformis; [5]): ≤ 15 min
- Time of death (100% kill) (T. pyriformis; 0.5 μg/ml): 3 min
- Time of death (100% kill) (T. pyriformis; [6]): five
- Time of death (100% kill) (T. pyriformis; 1.0 μg/ml): 1.5 min
- Time of death (100% kill) (T. pyriformis; 2.0 μg/ml): 1.0 min
- Time of death (100% kill) (T. pyriformis; 2.0 μg/ml, listed as beta resin): two
- Time of death (100% kill) (P. papillata; 0.05 μg/ml): not sensitive
- Time of death (100% kill) (P. papillata; 0.2 μg/ml): 40 min
- Time of death (100% kill) (P. papillata; [5]): ≤ 40 min
- Time of death (100% kill) (P. papillata; 0.5 μg/ml): 5 min
- Time of death (100% kill) (P. papillata; 1.0 μg/ml): 3.5 min
- Time of death (100% kill) (P. papillata; 2.0 μg/ml): 2.0 min
- Time of death (100% kill) (Amoeba proteus): 180 min
- Time of death (100% kill) (Chaos sp. [2]; 10 μg/ml): neither the alpha nor beta resins were effective alone
- Time of death (100% kill) (Chaos sp. [2]; 50 μg/ml): 60 min
- Time of death (100% kill) (Chaos sp. [2]; 50 μg/ml, listed as beta resin): effective per se
- Time of death (100% kill) (Chaos sp. [2]; 100 μg/ml): 30 min
- Time of death (100% kill) (Chaos sp. [2]; 100 μg/ml, listed as beta resin): all were effective
- Time of death (100% kill) (Chaos sp. [2]; 200 μg/ml): 30 min
- Time of death (100% kill) (Chaos sp. [2]; 500 μg/ml): 25 min
- Time of death (100% kill), resin + CO2 (P. caudatum [3]; resin 0.05 μg/ml): 14 min
- Time of death (100% kill), resin + CO2 (P. caudatum [3]; resin 0.1 μg/ml): 5 min
- Effectiveness in killing with prior carbon dioxide treatment (Chaos sp. [4]; resin 10 ug/ml, prior carbon dioxide treatment): both were effective
- Effectiveness in killing with prior carbon dioxide treatment (Chaos sp. [4]; resin 50 ug/ml, carbon dioxide pretreatment): both were effective with carbon dioxide pretreatment
- Effectiveness in killing with prior carbon dioxide treatment (Chaos sp. [4]; resin 100 ug/ml, carbon dioxide pretreatment): all were most effective with pretreatment

SMILES: O=C=O [Carbon dioxide, carbon dioxide]
- Time of death with carbon dioxide, without addition of hop (P. caudatum [3]; no hop): *Carbon dioxide had been bubbled into the medium for 30 seconds previous to inoculation and death without addition of hop occurred between 40-50 minutes.

Source: patent US6423317B1, “Method of killing protozoa” (S.S. Steiner, Inc., priority 2001, dated 2002)
